Measurements from ChEMBL document CHEMBL2010712, “Design and synthesis of orally available MEK inhibitors with potent in vivo antitumor efficacy” (Bioorg Med Chem Lett, 2012).
pEC50, pIC50: −log10 of the molar value.

Columns and labels:
[1] = target: Dual specificity mitogen-activated protein kinase kinase 1 (Homo sapiens, UniProt Q02750); assay: Inhibition of MEK1-mediated ERK1 phosphorylation using IPTTPITTYFFFK-5FAM-COOH as substrate by fluorescent polarization assay
COLO 205 = assay: Cytotoxicity against human COLO205 cells after 72 hrs by MTS assay; conditions: COLO 205, 72 h
A-375 = assay: Cytotoxicity against human A375 cells after 72 hrs by MTS assay; conditions: A-375, 72 h
[2] = Half life in human liver microsomes; format: ADME, Microsome
[3] = Half life in rat liver microsomes; format: ADME, Microsome
Rattus norvegicus = assay: Dose normalized AUC in rat at 1 mg/kg, iv and 5 mg/kg, po; format: ADME, organism-based; conditions: in vivo

Chain of Dual specificity mitogen-activated protein kinase kinase 1 (Q02750 whole entry): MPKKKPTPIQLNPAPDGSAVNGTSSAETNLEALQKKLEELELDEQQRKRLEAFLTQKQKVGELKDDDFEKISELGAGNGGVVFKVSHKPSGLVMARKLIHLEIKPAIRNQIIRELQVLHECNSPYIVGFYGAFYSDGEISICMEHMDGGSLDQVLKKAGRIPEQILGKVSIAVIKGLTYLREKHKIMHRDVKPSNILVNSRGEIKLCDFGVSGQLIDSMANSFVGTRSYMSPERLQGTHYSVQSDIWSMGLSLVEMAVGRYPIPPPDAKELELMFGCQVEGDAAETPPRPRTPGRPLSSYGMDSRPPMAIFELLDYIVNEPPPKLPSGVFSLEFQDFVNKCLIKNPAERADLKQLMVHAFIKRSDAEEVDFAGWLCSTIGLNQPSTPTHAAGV

Row | Compound | pIC50 [1] | pEC50 (COLO 205) | pEC50 (A-375) | half-life [2] [min] | half-life [3] [min] | AUC/dose (Rattus norvegicus) [ng·h/mL/mg/kg]
1 | O=C(NOC[C@H](O)CO)c1c(Nc2ccc(I)cc2F)c(F)c(=O)n2c1CCC2 | 7.41 | 7.57 | 7.16 | > 200 | > 200 | 
2 | Cn1c(Nc2ccc(Br)cc2F)c(C(=O)NOC[C@@H](O)CO)c2c1C(=O)CCC2 | 7.12 | 7.28 | 7.12 | 76 | 70 | 
3 | C#Cc1ccc(Nc2c(C(=O)NOCCO)c3n(c(=O)c2F)CCC3)c(F)c1 | 7.16 | 7.92 | 7.48 | 128 | > 200 | 
4 | Cn1c(Nc2ccc(I)cc2F)c(C(=O)NOC[C@H](O)CO)c2c1C(=O)CC2 | 7.27 | 8.05 | 7.89 | 86 | 54 | 
5 | O=C(NOCCO)c1c(Nc2ccc(I)cc2F)c(F)c(=O)n2c1CCCC2 | 7.24 | 7.92 | 7.52 | 111 | 41 | 
6 | O=C(NOCCO)c1c(Nc2ccc(I)cc2F)cc(=O)n2c1CCC2 |  | 8.30 | 7.89 | 134 | 62 | 
7 | Cn1c(Nc2ccc(Br)cc2F)c(C(=O)NOC[C@H](O)CO)c2c1C(=O)CCC2 | 7.28 | 7.24 | 7.14 | 94 | 85 | 
8 | Cn1c(Nc2ccc(I)cc2F)c(C(=O)NOCCO)c2c1C(=O)CCC2 | 7.85 | 9.00 | 9.00 | 3.7 | 5.5 | 
9 | O=C(NOCCO)c1c(Nc2ccc(I)cc2F)c(Cl)c(=O)n2c1CCC2 | 6.96 | 8.52 | 8.30 | 47 | 54 | 
10 | Cn1c(Nc2ccc(Br)cc2F)c(C(=O)NOCCO)c2c1C(=O)CCC2 | 7.74 | 7.47 | 7.51 | 25 | 20 | 
11 | Cn1c(Nc2ccc(I)cc2F)c(C(=O)NOC[C@@H](O)CO)c2c1C(=O)CCC2 | 7.77 | 8.70 | 8.60 | 22 | 36 | 
12 | Cn1c(Nc2ccc(I)cc2F)c(C(=O)NOCCO)c2c1C(=O)CC2 |  | 8.70 | 8.40 | 10 | 14 | 
13 | C#Cc1ccc(Nc2c(C(=O)NOC[C@H](O)CO)c3c(n2C)C(=O)CCC3)c(F)c1 | 7.39 | 7.21 | 7.14 | > 200 | > 200 | 
14 | CC(=O)c1cc(C(=O)NOCCO)c(Nc2ccc(I)cc2F)n1C |  | 7.92 | 7.85 |  |  | 144
15 | Cn1c(Nc2ccc(I)cc2F)c(C(=O)NOC[C@@H](O)CO)c2c1C(=O)CC2 | 7.96 | 8.30 | 8.15 | 64 | 54 | 
